According to US20250026752A1, “POSITIVE ALLOSTERIC MODULATORS OF THE MUSCARINIC ACETYLCHOLINE RECEPTOR M4” (Vanderbilt University, priority 2021, published 2025):

Target: T1, human mAChR M4 (Homo sapiens, UniProt P08173)
T1 construct: expressed in transfected cells; host or cells: CHO-K1 (ATCC), stably expressing hM4 and Gqi5
T1 sequence (P08173 1-479): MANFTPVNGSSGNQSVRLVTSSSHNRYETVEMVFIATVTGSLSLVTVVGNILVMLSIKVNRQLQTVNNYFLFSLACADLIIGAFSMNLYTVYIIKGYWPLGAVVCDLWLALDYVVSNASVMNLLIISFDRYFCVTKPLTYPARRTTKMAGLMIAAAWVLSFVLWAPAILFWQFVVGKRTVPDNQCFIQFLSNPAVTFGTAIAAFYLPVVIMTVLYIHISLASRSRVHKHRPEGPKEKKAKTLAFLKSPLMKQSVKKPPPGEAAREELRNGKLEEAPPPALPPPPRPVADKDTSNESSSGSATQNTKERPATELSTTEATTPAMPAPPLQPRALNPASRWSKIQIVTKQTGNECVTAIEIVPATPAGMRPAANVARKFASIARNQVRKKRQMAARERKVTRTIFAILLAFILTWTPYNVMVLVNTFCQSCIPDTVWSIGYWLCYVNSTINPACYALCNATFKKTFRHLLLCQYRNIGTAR
Test: mAChR M4 cell-based functional assay: calcium flux (Fluo-4, FDSS), positive allosteric modulator activity on the EC20 acetylcholine response, hM4-Gqi5 CHO-K1 cells
Conditions: for Emax at 30 µM: CHO-K1, human M4, % ACh maximum at 30 μM; for EC50: human M4, PAM activity on EC20 acetylcholine response, calcium flux, read-out: Human M4 EC50
Protocol: Human M4 cDNA, along with the chimeric G protein Gqi5, were transfected into Chinese hamster ovary (CHO-K1) cells purchased from the American Type Culture Collection using commercially available Lipofectamine 2000 transfection reagent (Dalby, B. et al., Methods (2004) 33(2), 95-103). hM4-Gqi5 cells were grown in Ham's F-12 medium containing 10% heat-inactivated fetal bovine serum (FBS), 20 mM […], 50 μg/mL G418 sulfate (CAS #108321-42-2), and 500 μg/mL Hygromycin B. rM4-Gqi5 cells were grown in DMEM containing 10% heat-inactivated FBS, 20 mM HEPES, 400 μg/mL G418 sulfate, and 500 μg/mL Hygromycin B.
For high throughput measurement of agonist-evoked increases in intracellular calcium, CHO-K1 cells stably expressing muscarinic receptors were plated in growth medium lacking G418 sulfate and hygromycin at 15,000 cells/20 μL/well in Greiner 384-well black-walled, tissue culture (TC)-treated, clear-bottom plates (VWR). Cells were incubated overnight at 37° C. and 5% C02. The next day, cells were washed using an ELX 405 (BioTek) with assay buffer; the final volume was then aspirated to 20 μL. Next, 20 μL of a 2.3 μM stock of Fluo-4/acetoxymethyl ester (Invitrogen, Carlsbad, CA), prepared as a 2.3 mM stock in DMSO and mixed in a 1:1 ratio with 10% (w/v) Pluronic F-127 and diluted in assay buffer, was added to the wells and the cell plates were incubated for 50 minutes at 37° C. and 5% C02. Dye was removed by washing with the ELX 405 and the final volume was aspirated to 20 μL. Compound master plates were formatted in an 11 point concentration-response curve (CRC) format (1:3 dilutions) in 100% DMSO with a starting concentration of 10 mM using a BRAVO liquid handler (Agilent). Test compound CRCs were then transferred to daughter plates (240 nL) using the Echo acoustic plate reformatter (Labcyte, Sunnyvale, CA) and then diluted into assay buffer (40 μL) to a 2× stock using a Thermo Fisher Combi (Thermo Fisher Scientific, Waltham, MA).
Calcium flux was measured using the Functional Drug Screening System (FDSS) 6000 or 7000 (Hamamatsu Corporation, Tokyo, Japan) as an increase in the fluorescent static ratio. Compounds were applied to cells (20 μL, 2×) using the automated system of the FDSS at 2-4 seconds into the protocol and the data were collected at 1 Hz. At 144 seconds, 10 μL of an EC20 concentration of the muscarinic receptor agonist acetylcholine was added (5×), followed by the addition of 12 μL of an EC80 concentration of acetylcholine at the 230 second time point (5×). Agonist activity was analyzed as a concentration-dependent increase in calcium mobilization upon compound addition. Positive allosteric modulator activity was analyzed as a concentration-dependent increase in the EC20 acetylcholine response. With the acetylcholine EC20 set as baseline, the test compound EC50 is determined as the concentration that produces an increase above baseline of 50% of the maximum increase in acetylcholine response elicted by the test compound. Antagonist activity was analyzed as a concentration-dependent decrease in the ECso acetylcholine response. Concentration-response curves were generated using a four-parameter logistical equation in XLFit curve fitting software (IDBS, Bridgewater, NJ) for Excel (Microsoft, Redmond, WA) or Prism (GraphPad Software, Inc., San Diego, CA).
Compounds were synthesized as described above. Activity (EC50 and Emax) was determined in the mAChR M4 cell-based functional assay as described above and the data are shown in Table 4. The compound numbers correspond to the compound numbers used in Examples 1-33 and Tables 1, 2, and 3.

| SMILES | Emax at 30 µM | EC50 |
| --- | --- | --- |
| Cc1nc(N2CCc3ncc(-c4ccc(N(C)C)nc4)cc3C2)c2cc(F)ccc2n1 [Compound 24, 5-[6-(6-fluoro-2-methyl-quinazolin-4-yl)-7,8-dihydro-5H-1,6-naphthyridin-3-yl]-N,N-dimethyl-pyridin-2-amine] | 92% | 590 nM |
| Cc1nc(N2CCc3ncc(-c4ccc(C5CC5)nc4)cc3C2)c2cc(F)ccc2n1 [Compound 25, 4-[3-(6-cyclopropyl-3-pyridyl)-7,8-dihydro-5H-1,6-naphthyridin-6-yl]-6-fluoro-2-methyl-quinazoline] | 96% | 310 nM |
| Cc1ncc(-c2cnc3c(c2)CN(c2ncnc4ccc(F)cc24)CC3)s1 [Compound 27, 5-[6-(6-fluoroquinazolin-4-yl)-7,8-dihydro-5H-1,6-naphthyridin-3-yl]-2-methyl-thiazole] | 110% | 170 nM |
| Cc1nn(C)cc1-c1cnc2c(c1)CN(c1nc(Cl)nc3ccc(Cl)cc13)CC2 [Compound 28, 2,6-dichloro-4-[3-(1,3-dimethylpyrazol-4-yl)-7,8-dihydro-5H-1,6-naphthyridin-6-yl]quinazoline] | 103% | 570 nM |
| Cc1noc(C)c1-c1cnc2c(c1)CN(c1nc(Cl)nc3ccc(F)cc13)CC2 [Compound 29, 4-[6-(2-chloro-6-fluoro-quinazolin-4-yl)-7,8-dihydro-5H-1,6-naphthyridin-3-yl]-3,5-dimethyl-isoxazole] | 97% | 260 nM |
| Cc1ccc2nc(Cl)nc(N3CCc4ncc(-c5cnn(C6CC6)c5)cc4C3)c2c1 [Compound 30, 2-chloro-4-[3-(1-cyclopropylpyrazol-4-yl)-7,8-dihydro-5H-1,6-naphthyridin-6-yl]-6-methyl-quinazoline] | 113% | 510 nM |
| Cc1nn(C)cc1-c1cnc2c(c1)CN(c1nc(Cl)nc3ccc(F)cc13)CC2 [Compound 31, 2-chloro-4-[3-(1,3-dimethylpyrazol-4-yl)-7,8-dihydro-5H-1,6-naphthyridin-6-yl]-6-fluoro-quinazoline] | 95% | 230 nM |
| Cc1ccc2nc(C)nc(N3CCc4ncc(-c5cn(C)nc5C)cc4C3)c2c1 [Compound 32, 4-[3-(1,3-dimethylpyrazol-4-yl)-7,8-dihydro-5H-1,6-naphthyridin-6-yl]-2,6-dimethyl-quinazoline] | 84% | 780 nM |
| Cc1ccc2nc(C)nc(N3CCc4ncc(-c5cnn(C6CC6)c5)cc4C3)c2c1 [Compound 33, 4-[3-(1-cyclopropylpyrazol-4-yl)-7,8-dihydro-5H-1,6-naphthyridin-6-yl]-2,6-dimethyl-quinazoline] | 92% | 380 nM |
| Clc1nc(N2CCc3ncc(-c4cnn(C5CC5)c4)cc3C2)c2cccnc2n1 [Compound 34, 2-chloro-4-[3-(1-cyclopropylpyrazol-4-yl)-7,8-dihydro-5H-1,6-naphthyridin-6-yl]pyrido[2,3-d]pyrimidine] | 53% | 600 nM |
| Cc1ncc(-c2cnc3c(c2)CN(c2nc(Cl)nc4ncccc24)CC3)s1 [Compound 35, 5-[6-(2-chloropyrido[2,3-d]pyrimidin-4-yl)-7,8-dihydro-5H-1,6-naphthyridin-3-yl]-2-methyl-thiazole] | 57% | 610 nM |
| Cc1ccc(-c2cnc3c(c2)CN(c2nc(Cl)nc4ncccc24)CC3)cn1 [Compound 36, 2-chloro-4-[3-(6-methyl-3-pyridyl)-7,8-dihydro-5H-1,6-naphthyridin-6-yl]pyrido[2,3-d]pyrimidine] | 69% | 650 nM |
| Fc1ccc2ncnc(N3CCc4ncc(-c5ccc(C6CC6)nc5)cc4C3)c2c1 [Compound 37, 4-[3-(6-cyclopropyl-3-pyridyl)-7,8-dihydro-5H-1,6-naphthyridin-6-yl]-6-fluoro-quinazoline] | 88% | 260 nM |
| Cc1ccc(-c2cnc3c(c2)CN(c2ncnc4ccc(F)cc24)CC3)cn1 [Compound 38, 6-fluoro-4-[3-(6-methyl-3-pyridyl)-7,8-dihydro-5H-1,6-naphthyridin-6-yl]quinazoline] | 93% | 170 nM |
| CN(C)c1ccc(-c2cnc3c(c2)CN(c2ncnc4ccc(Cl)cc24)CC3)cn1 [Compound 41, 5-[6-(6-chloroquinazolin-4-yl)-7,8-dihydro-5H-1,6-naphthyridin-3-yl]-N,N-dimethyl-pyridin-2-amine] | 74% | 430 nM |
| Clc1ccc2ncnc(N3CCc4ncc(-c5ccc(C6CC6)nc5)cc4C3)c2c1 [Compound 42, 6-chloro-4-[3-(6-cyclopropyl-3-pyridyl)-7,8-dihydro-5H-1,6-naphthyridin-6-yl]quinazoline] | 72% | 380 nM |

The remaining compounds from weak to strong by EC50, led by results:

| Emax at 30 µM | EC50 | SMILES |
| --- | --- | --- |
| 93% | 170 nM | Cc1nc(N2CCc3ncc(-c4cnc(C)s4)cc3C2)c2cc(F)ccc2n1 [Compound 23, 5-[6-(6-fluoro-2-methyl-quinazolin-4-yl)-7,8-dihydro-5H-1,6-naphthyridin-3-yl]-2-methyl-thiazole] |
| 102% | 130 nM | Cc1ccc(-c2cnc3c(c2)CN(c2nc(C)nc4ccc(F)cc24)CC3)cn1 [Compound 26, 6-fluoro-2-methyl-4-[3-(6-methyl-3-pyridyl)-7,8-dihydro-5H-1,6-naphthyridin-6-yl]quinazoline] |
| 90% | 120 nM | Cc1nc(N2CCc3ncc(-c4c(C)noc4C)cc3C2)c2cc(F)ccc2n1 [Compound 22, 4-[6-(6-fluoro-2-methyl-quinazolin-4-yl)-7,8-dihydro-5H-1,6-naphthyridin-3-yl]-3,5-dimethyl-isoxazole] |
| 79% | 110 nM | Cc1ncc(-c2cnc3c(c2)CN(c2ncnc4ccc(Cl)cc24)CC3)s1 [Compound 40, 5-[6-(6-chloroquinazolin-4-yl)-7,8-dihydro-5H-1,6-naphthyridin-3-yl]-2-methyl-thiazole] |
| 79% | 70 nM | Cc1ccc(-c2cnc3c(c2)CN(c2ncnc4ccc(Cl)cc24)CC3)cn1 [Compound 43, 6-chloro-4-[3-(6-methyl-3-pyridyl)-7,8-dihydro-5H-1,6-naphthyridin-6-yl]quinazoline] |
| 84% | 60 nM | Cn1nccc1-c1cnc2c(c1)CN(c1ncnc3ccc(Cl)cc13)CC2 [Compound 39, 6-chloro-4-[3-(2-methylpyrazol-3-yl)-7,8-dihydro-5H-1,6-naphthyridin-6-yl]quinazoline] |
| 90% | 40 nM | Cc1nc(N2CCc3ncc(-c4cnn(C)c4)cc3C2)c2cc(F)ccc2n1 [Compound 21, 6-fluoro-2-methyl-4-[3-(1-methylpyrazol-4-yl)-7,8-dihydro-5H-1,6-naphthyridin-6-yl]quinazoline] |
